Reference: ChEMBL document CHEMBL1201862, “PubChem BioAssay data set” (2004)
Calls of active or inactive are those of the source.

Assays:
Vero [1] = assay: Vero 76 cell viability after compound exposure – Vero 76 cells, synthesized analogs, cytotoxicity control for West Nile virus antiviral project, SAR follow-up (AID 2414); assay type: functional; details: Chlorocebus sabaeus
[2] = A Cell Based Assay for the Identification of Probe candidate Compounds with Anti- Venezuelan Equine Encephalitis virus. [Related pubchem assays: 2409, 2419, 1621, 2238, 2405, 2024, 2065, 2402, 2414, 1635, 1650, 2244 ]; assay type: functional
Vero [3] = assay: host cell viability loss, Vero E6 – synthesized analogs, cytotoxicity control for West Nile virus antiviral project, SAR follow-up (AID 2244); assay type: functional; details: Chlorocebus sabaeus
Vero [4] = assay: antiviral protection of cells from WNV – synthesized analogs, SAR follow-up (AID 2238); assay type: functional, cell-based; details: Chlorocebus sabaeus
Vero [5] = assay: inhibition of WNV-induced cytopathic effect – cell-based, CPE readout (AID 1621); assay type: functional; details: Chlorocebus sabaeus
Vero [6] = assay: Vero cell viability after compound exposure – synthesized analogs, set II, cytotoxicity control for West Nile virus antiviral project, SAR follow-up (AID 2402); assay type: functional; details: Chlorocebus sabaeus
Vero [7] = assay: cells; assay type: functional; details: Chlorocebus sabaeus
CAAX prenyl protease 2 [8] = target: CAAX prenyl protease 2 (Saccharomyces cerevisiae S288c, UniProt Q03530); assay type: biochemical
Sequence of CAAX prenyl protease 2 (Saccharomyces cerevisiae S288c, UniProt Q03530) (Q03530 whole entry): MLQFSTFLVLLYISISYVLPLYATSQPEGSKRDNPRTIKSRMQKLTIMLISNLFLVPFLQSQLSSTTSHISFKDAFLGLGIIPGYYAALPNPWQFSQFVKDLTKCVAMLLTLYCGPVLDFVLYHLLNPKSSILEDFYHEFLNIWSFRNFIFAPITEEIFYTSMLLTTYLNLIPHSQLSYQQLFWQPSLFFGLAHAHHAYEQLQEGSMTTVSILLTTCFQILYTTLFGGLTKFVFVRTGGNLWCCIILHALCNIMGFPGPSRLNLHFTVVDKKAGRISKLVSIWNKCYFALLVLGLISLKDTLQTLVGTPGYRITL

Trypsin = Trypsin (Sus scrofa, UniProt P00761); assay: trypsin protease activity blockade – biochemical, quenched peptide fluorescence, cherry-pick, selectivity assay for Rce1 protease inhibitor project, dose response (AID 488789)
Sequence of Trypsin (P00761 whole entry): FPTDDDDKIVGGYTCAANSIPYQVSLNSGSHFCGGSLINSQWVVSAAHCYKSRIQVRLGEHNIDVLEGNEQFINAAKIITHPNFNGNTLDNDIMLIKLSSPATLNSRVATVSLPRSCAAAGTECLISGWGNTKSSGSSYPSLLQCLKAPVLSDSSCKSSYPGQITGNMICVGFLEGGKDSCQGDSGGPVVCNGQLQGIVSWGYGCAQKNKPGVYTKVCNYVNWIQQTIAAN

CAAX prenyl protease 2 [9] = target: CAAX prenyl protease 2 (Homo sapiens, UniProt Q9Y256); assay: inhibition of Ras-converting CAAX protease Rce1 – biochemical, yeast membranes, quenched-peptide fluorescence, cherry-pick, dose response (AID 588849)
Sequence of CAAX prenyl protease 2 (Homo sapiens, UniProt Q9Y256) (Q9Y256 whole entry): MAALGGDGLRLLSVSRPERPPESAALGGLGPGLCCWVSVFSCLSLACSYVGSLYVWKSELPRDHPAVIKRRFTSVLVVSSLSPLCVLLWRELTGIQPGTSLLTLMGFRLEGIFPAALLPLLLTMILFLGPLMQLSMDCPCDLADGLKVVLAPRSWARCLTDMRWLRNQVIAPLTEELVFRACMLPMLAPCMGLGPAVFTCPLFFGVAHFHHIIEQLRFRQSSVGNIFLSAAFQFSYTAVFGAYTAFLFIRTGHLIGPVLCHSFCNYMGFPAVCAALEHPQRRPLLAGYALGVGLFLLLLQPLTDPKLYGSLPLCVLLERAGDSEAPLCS

Coagulation factor XII [10] = target: T1, Coagulation factor XII (Homo sapiens, UniProt P00748); assay: Factor XIIa Dose Response Confirmation from Single Well HTS. [Related pubchem assays (depositor defined):AID701]; assay type: functional
T1 sequence (P00748 whole entry): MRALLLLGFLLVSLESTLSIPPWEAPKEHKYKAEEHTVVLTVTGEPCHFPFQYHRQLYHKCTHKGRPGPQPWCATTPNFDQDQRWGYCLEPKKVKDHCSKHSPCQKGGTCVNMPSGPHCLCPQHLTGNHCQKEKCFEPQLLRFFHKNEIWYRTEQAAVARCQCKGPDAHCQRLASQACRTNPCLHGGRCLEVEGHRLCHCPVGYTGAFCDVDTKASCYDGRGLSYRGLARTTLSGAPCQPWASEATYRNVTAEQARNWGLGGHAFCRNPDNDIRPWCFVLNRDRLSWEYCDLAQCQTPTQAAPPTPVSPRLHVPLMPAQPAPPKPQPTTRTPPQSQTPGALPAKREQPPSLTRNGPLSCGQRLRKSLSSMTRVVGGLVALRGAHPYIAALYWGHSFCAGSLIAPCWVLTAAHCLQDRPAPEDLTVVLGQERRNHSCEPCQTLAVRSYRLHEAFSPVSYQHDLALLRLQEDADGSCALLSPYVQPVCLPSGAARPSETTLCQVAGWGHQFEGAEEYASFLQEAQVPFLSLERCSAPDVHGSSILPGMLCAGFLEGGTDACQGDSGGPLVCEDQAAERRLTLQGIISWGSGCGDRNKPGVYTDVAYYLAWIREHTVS

[11] = target: Intestinal-type alkaline phosphatase (Homo sapiens, UniProt P09923); assay: Dose Response confirmation of uHTS hits from a small molecule inhibitors of human intestinal alkaline phosphatase via a luminescent assay. [Related pubchem assays (depositor defined):AID2544, AID2574]; assay type: functional
Coagulation factor XII [12] = target: T1, Coagulation factor XII; assay: activated coagulation factor XII inhibitor potency, concentration-effect curve, cell-free (AID 716); assay type: functional
[13] = Luminescence Cell-Based Dose Confirmation HTS to Identify Activators of 5'UTR Stem-Loop Driven Alpha-Synuclein mRNA Translation in H4 Neuroglioblastoma Cells. [Related pubchem assays: 1829 (Project Summary), 1814 (Primary HTS)]; assay type: functional
[14] = target: T2, Zinc finger protein mex-5 (Caenorhabditis elegans, UniProt Q9XUB2); assay: potency of MEX-5 RNA-binding blockers – biochemical, C. elegans, fluorescence polarization, dose response (AID 1960)
T2 sequence (Q9XUB2 whole entry): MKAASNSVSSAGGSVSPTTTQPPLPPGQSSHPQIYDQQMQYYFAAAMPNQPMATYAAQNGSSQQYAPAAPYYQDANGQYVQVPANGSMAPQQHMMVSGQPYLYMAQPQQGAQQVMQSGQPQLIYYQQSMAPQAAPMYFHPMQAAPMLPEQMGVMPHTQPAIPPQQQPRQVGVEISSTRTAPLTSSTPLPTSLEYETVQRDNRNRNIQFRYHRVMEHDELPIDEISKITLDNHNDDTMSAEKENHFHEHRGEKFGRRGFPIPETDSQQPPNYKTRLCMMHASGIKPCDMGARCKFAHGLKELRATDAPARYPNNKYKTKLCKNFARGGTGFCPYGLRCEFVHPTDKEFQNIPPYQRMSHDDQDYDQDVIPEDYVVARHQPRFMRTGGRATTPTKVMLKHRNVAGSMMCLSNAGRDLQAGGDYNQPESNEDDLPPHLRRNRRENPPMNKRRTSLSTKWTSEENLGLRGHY

[15] = Luminescence Cell-Based Dose Retest to Confirm Activators of 5'UTR Stem-Loop Driven Alpha-Synuclein mRNA Translation in H4 Neuroglioblastoma Cells. [Related pubchem assays (depositor defined):AID1813, AID1829]; assay type: functional
H4 = assay: Luminescence Cell-Based Dose Response HTS to Identify Activators of 5'UTR Stem-Loop Driven Prion Protein mRNA Translation in H4 Neuroglioblastoma Cells. [Related pubchem assays: 1829 (Project Summary), 1814 (Primary HTS)]; assay type: functional; details: Homo sapiens
[16] = Luminescence Cell-Based Dose Response HTS to Identify Activators of Luciferase Translation or Activity in H4-C Neuroglioblastoma Cells. [Related pubchem assays: 1829 (Project Summary), 1814 (Primary HTS)]; assay type: functional
[17] = target: T3, RNA-binding protein pos-1 (Caenorhabditis elegans, UniProt G5EF15); assay: disruptors of C. elegans POS-1 RNA interaction – biochemical, fluorescence polarization, dose response (AID 1964);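 also: purified POS-1 fused to maltose binding protein made in E. coli; potency of compounds blocking POS-1 binding to fluorescent RNA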
T3 sequence (G5EF15 whole entry): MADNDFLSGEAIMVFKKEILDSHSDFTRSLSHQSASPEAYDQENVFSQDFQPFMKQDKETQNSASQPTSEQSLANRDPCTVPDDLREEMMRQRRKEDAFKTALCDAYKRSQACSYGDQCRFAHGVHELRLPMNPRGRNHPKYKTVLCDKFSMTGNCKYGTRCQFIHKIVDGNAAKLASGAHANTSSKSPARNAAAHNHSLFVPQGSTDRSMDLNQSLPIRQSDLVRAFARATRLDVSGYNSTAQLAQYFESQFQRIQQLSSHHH

[18] = Luminescence Cell-Based Dose Response HTS to Identify Activators of 5'UTR Stem-Loop Driven Prion Protein mRNA Translation in H4-C Neuroglioblastoma Cells. [Related pubchem assays: 1829 (Project Summary), 1814 (Primary HTS)]; assay type: functional
[19] = Luminescence Cell-Based Dose Response HTS to Identify Activators of Luciferase Translation or Activity in H4 […] Cells. [Related pubchem assays: 1829 (Project Summary), 1814 (Primary HTS)]; assay type: functional
[20] = target: T4, Kappa-type opioid receptor (Homo sapiens, UniProt P41145); assay: SAR analysis of Antagonists of the Kappa Opioid Receptor (KOR) using an Image-Based Assay - Set 3. [Related pubchem assays (depositor defined):AID1777, AID1785]; assay type: functional
T4 sequence (P41145 whole entry): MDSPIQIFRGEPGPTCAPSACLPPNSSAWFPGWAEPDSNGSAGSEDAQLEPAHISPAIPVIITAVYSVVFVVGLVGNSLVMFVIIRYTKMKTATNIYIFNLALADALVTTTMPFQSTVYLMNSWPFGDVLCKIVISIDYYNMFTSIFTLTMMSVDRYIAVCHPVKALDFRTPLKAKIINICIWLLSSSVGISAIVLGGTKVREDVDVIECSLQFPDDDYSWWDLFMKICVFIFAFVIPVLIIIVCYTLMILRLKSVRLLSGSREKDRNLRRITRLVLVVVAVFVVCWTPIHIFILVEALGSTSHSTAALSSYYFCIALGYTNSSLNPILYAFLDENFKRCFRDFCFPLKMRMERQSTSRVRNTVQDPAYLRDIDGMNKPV

[21] = target: T4, Kappa-type opioid receptor; assay: SAR analysis of small molecule antagonists of the kappa opioid receptor via a luminescent beta-arrestin assay - Set 3. [Related pubchem assays (depositor defined):AID1777, AID1778, AID1785, AID1786, AID1966, AID2133, AID2136, AID2285, AID2495]; assay type: functional
Mu-type opioid receptor = Mu-type opioid receptor (Homo sapiens, UniProt P35372); assay: SAR Analysis of Antagonists of the MOR Receptor using an Image-Based Assay - Set 3. [Related pubchem assays (depositor defined):AID1777, AID1785, AID1786, AID1966, AID2133, AID2136, AID2284, AID2285, AID2420]; assay type: functional
Sequence of Mu-type opioid receptor (P35372 whole entry): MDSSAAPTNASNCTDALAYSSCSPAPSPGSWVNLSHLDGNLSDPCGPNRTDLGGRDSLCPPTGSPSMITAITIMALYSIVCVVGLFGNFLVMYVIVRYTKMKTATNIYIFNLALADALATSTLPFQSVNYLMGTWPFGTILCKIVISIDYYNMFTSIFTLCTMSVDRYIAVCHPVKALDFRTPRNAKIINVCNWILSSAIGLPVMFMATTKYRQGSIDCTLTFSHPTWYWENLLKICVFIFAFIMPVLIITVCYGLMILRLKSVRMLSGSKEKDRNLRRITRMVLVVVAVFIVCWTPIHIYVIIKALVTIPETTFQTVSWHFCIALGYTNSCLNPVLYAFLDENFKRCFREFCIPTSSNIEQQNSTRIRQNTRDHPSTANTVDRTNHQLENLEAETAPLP

[22] = target: Delta-type opioid receptor (Homo sapiens, UniProt P41143); assay: SAR Analysis of Antagonists of the DOR Receptor using an Image-Based Assay - Set 3. [Related pubchem assays (depositor defined):AID1777, AID1785]; assay type: functional;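 also: U2OS cells expressing DOR1 and beta-arrestin GFP stimulated with 100 nM SNC80; imaging of GFP-tagged beta-arrestin moving into spots after receptor activation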
Sequence of Delta-type opioid receptor (P41143 whole entry): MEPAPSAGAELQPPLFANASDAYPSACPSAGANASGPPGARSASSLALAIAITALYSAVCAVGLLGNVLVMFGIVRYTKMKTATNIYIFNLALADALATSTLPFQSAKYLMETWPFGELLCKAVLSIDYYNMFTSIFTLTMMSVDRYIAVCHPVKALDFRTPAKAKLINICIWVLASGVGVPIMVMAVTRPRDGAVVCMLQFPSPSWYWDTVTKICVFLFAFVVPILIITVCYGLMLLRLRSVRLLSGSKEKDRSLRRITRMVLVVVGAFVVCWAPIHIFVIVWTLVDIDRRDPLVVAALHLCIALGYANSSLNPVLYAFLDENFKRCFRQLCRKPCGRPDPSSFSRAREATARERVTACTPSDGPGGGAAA

Hexokinase = Hexokinase (Trypanosoma brucei, UniProt Q38C41); assay: Confirmation assay for inhibitors of Trypanosoma brucei hexokinase 1-Analogue-first series. [Related pubchem assays (depositor defined):AID1430, AID1632, AID2516, AID2560, AID2579, AID2600, AID449725, AID492951]; assay type: functional
Sequence of Hexokinase (Q38C41 whole entry): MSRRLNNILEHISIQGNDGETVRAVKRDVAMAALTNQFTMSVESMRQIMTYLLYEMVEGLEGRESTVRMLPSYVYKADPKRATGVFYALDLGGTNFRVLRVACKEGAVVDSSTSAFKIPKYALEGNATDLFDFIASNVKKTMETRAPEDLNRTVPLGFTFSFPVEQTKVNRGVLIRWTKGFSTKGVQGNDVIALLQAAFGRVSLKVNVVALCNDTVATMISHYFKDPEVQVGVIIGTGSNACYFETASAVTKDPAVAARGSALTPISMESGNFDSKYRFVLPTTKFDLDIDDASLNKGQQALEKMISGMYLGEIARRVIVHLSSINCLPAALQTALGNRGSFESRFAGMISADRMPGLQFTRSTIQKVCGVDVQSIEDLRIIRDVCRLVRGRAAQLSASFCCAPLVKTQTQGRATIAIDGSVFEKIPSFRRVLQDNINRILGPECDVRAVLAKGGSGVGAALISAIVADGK

[23] = target: T5, Tyrosine-protein phosphatase non-receptor type 7 (Homo sapiens, UniProt P35236); assay: SAR analysis of chemical inhibitors of HePTP using a Fluorescent assay - Set 2. [Related pubchem assays (depositor defined):AID1059, AID1077, AID1661, AID2085, AID521]; assay type: functional
T5 sequence (P35236 whole entry): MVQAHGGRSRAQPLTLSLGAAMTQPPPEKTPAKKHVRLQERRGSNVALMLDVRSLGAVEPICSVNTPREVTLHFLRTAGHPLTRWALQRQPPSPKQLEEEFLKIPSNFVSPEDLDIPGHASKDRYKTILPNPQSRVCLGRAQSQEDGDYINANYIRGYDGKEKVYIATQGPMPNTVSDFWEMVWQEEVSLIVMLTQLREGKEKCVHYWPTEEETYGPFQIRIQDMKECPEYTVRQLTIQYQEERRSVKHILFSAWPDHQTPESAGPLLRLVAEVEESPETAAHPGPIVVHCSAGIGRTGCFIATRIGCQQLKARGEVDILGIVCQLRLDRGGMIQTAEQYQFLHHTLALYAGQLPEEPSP

[24] = target: Dual specificity protein phosphatase 3 (Homo sapiens, UniProt P51452); assay: SAR VHR1 Fluorescent Assay for In Vitro dose response studies Set 2. [Related pubchem assays (depositor defined):AID1654, AID1661, AID1878]; assay type: functional
Sequence of Dual specificity protein phosphatase 3 (P51452 whole entry): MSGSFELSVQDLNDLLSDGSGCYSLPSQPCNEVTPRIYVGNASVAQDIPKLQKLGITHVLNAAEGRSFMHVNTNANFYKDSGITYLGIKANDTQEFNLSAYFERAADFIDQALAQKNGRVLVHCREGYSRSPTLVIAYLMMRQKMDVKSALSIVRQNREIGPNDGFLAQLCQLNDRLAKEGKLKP

[25] = viability of PTEN-deleted HCT116 cells – cell-based, HCT116 PTEN knockout, dose response (AID 1047); assay type: functional;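 also: HCT116 colon tumor cells with PTEN knocked out; cells exposed to compound for 60 hours before readout; potency for loss of cell viability measured by luminescence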
[26] = viability of HCT116 lacking mutant beta-catenin – cell-based, human colon tumor, dose response (AID 1045); assay type: functional;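 also: HCT116 colon tumor cells with beta catenin knocked out; cells exposed to compound for 60 hours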
[27] = target: T6, Endoribonuclease toxin MazF (Escherichia coli K-12, UniProt P0AE70); assay: substrate-only fluorescence increase artefacts – biochemical, single-stranded RNase substrate, counter-screen for MazEF activator project, dose response (AID 588502); assay type: functional
T6 sequence (P0AE70 whole entry): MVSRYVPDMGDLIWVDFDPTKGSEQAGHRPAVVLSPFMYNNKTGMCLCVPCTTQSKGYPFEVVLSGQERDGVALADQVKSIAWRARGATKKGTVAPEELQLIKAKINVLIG

[28] = target: Neurotensin receptor type 1 (Homo sapiens, UniProt P30989); assay type: functional;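 also: Image-based confirmatory dose-response assay measuring agonist activity at NTR1; NTR1-expressing U2OS osteosarcoma cells imaged for beta-arrestin GFP spot formation; agonist potency where compounds increase beta-arrestin recruitment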
Sequence of Neurotensin receptor type 1 (P30989 whole entry): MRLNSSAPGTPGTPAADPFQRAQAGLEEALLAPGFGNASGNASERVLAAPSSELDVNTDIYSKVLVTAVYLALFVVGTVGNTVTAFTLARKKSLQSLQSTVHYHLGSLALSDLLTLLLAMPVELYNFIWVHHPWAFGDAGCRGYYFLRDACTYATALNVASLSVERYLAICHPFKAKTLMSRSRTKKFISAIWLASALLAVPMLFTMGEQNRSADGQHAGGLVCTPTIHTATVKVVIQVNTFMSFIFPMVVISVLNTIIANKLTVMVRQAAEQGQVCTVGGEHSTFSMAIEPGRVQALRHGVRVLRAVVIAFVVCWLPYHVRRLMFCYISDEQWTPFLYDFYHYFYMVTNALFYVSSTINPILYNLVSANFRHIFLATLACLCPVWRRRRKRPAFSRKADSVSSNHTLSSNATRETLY

[29] = target: T6, Endoribonuclease toxin MazF; assay: activation of MazEF endoribonuclease cleavage – biochemical, fluorescence, single-stranded RNA substrate, uHTS hits, dose response (AID 588481); assay type: functional
[30] = target: Arf-GAP with SH3 domain, ANK repeat and PH domain-containing protein 1 (Homo sapiens, UniProt Q9ULH1); assay type: functional;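 also: biochemical fluorescence polarization dose–response screen measuring inhibition of ASAP1; ASAP1 GAP domain stimulating GTP hydrolysis by truncated human ARF1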
Sequence of Arf-GAP with SH3 domain, ANK repeat and PH domain-containing protein 1 (Q9ULH1 whole entry, the tested form may be a part): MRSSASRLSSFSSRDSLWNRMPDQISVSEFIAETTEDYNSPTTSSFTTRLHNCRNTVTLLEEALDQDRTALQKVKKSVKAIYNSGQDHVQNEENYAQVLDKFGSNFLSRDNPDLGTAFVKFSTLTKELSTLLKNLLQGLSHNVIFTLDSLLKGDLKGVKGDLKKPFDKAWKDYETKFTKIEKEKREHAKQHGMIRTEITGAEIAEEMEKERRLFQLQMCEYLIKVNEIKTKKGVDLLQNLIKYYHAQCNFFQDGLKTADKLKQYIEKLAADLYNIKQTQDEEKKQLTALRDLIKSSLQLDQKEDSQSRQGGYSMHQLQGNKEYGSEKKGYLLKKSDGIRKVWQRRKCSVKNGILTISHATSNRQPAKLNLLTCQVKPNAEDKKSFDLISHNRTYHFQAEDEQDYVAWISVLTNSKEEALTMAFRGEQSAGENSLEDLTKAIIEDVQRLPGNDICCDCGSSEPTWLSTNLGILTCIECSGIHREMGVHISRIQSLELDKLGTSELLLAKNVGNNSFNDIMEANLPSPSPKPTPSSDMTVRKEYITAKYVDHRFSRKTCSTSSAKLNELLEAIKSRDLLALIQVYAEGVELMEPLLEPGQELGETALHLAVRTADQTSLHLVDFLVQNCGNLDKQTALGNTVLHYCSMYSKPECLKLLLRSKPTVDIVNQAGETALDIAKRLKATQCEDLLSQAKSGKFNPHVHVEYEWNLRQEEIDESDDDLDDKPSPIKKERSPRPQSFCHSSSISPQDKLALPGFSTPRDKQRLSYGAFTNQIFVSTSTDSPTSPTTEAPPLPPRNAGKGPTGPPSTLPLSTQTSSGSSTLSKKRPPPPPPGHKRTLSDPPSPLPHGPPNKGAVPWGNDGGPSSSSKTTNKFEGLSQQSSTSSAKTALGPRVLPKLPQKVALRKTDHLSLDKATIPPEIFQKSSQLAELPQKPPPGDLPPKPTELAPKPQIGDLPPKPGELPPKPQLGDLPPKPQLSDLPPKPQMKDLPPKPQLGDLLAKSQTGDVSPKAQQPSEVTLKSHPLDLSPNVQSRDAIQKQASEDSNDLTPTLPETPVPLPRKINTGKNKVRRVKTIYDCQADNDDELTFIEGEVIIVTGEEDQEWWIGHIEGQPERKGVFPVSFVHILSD

[31] = target: T7, Ubiquitin-conjugating enzyme E2 N (Homo sapiens, UniProt P61088); assay type: functional;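 also: Dose-response confirmation in a TR-FRET assay detecting UBC13-driven polyubiquitin chain formation, inhibition measured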
T7 sequence (P61088 whole entry): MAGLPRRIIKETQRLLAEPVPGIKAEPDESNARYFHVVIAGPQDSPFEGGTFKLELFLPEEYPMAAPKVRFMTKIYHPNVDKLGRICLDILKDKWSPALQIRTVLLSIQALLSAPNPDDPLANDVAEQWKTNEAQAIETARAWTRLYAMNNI

[32] = target: G-protein coupled receptor 55 (Homo sapiens, UniProt Q9Y2T6); assay: selective activators of receptor GPR55 – imaging, U2OS cells, beta-arrestin-GFP redistribution, primary screen (AID 1961); assay type: functional
Sequence of G-protein coupled receptor 55 (Q9Y2T6 whole entry): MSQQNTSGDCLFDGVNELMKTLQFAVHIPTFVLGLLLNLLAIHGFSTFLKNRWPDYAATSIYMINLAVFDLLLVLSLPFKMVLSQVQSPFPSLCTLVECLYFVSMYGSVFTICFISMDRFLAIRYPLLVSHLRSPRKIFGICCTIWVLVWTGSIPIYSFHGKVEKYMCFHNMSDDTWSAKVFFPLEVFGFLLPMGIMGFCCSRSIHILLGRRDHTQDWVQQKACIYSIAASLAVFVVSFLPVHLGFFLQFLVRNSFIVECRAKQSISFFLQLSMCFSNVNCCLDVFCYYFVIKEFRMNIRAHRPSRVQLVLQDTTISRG

CC1CCCN(CCCNC(=O)c2cc3c(s2)-c2ccccc2OC3)C1 (configuration not stated)
CC50 (Vero [1]): 19.6 µM (active)
IC50 [2]: 9.94 µM (active)
CC50 (Vero [3]): 6.78 µM (active)
IC50 (Vero [4]): > 40 µM (active)
IC50 (Vero [5]): 18.9 µM (active)
CC50 (Vero [6]): 9.23 µM (active)
CC50 (Vero [7]): > 25 µM (active)

CS(=O)(=O)Nc1ccccc1C(=O)NC1CC2CCC1C2 (configuration not stated)
AC50 (CAAX prenyl protease 2 [8]): 3.03 µM (active)

Cc1csc(NC(=O)c2ccccc2O)n1
AC50 (Trypsin): > 100 µM (inactive)
AC50 (CAAX prenyl protease 2 [9]): 19.3 µM (active)

O=C(Oc1nsnc1N1CCOCC1)c1ccccc1
IC50 (Coagulation factor XII [10]): 4.38 µM (active)

Cc1cccc(SCc2noc(C(=O)NCC3CCCO3)c2C(=O)O)c1 (configuration not stated)
IC50 [11]: > 100 µM (inactive)

Cc1nnc(NC(=O)C2CCN(c3cnccn3)CC2)s1
IC50 (Coagulation factor XII [12]): > 50 µM (inactive)

COc1cc(/C=C2/C(=O)ON=C2C)ccc1OCc1ccccc1F
EC50 [13]: 127 nM (active)
EC50 [14]: > 300 µM (inconclusive)
EC50 [15]: 901 nM (active)
EC50 (H4): > 120 µM (not active)
EC50 [16]: 2.06 µM (active)
EC50 [17]: 60.2 µM (active)
EC50 [18]: 10.3 µM (active)
EC50 [19]: 39.6 µM (active)
CC50 (Vero [7]): 22.3 µM (active)

CCc1ccc(S(=O)(=O)NCc2ccc(C(=O)NCCN(Cc3ccc(OC)cc3)C(C)C)cc2)cc1
IC50 [20]: 264 nM (active)
IC50 [21]: 873 nM (active)
IC50 (Mu-type opioid receptor): > 32 µM (inactive)
IC50 [22]: > 32 µM (inactive)

O=C(Nc1ccccc1)c1cc(F)ccc1S
IC50 (Hexokinase): > 25 µM (inactive)

Cc1ccc(-n2c(N)c(C(=O)N3CCOCC3)sc2=S)cc1
IC50 [23]: > 100 µM (inactive)
IC50 [24]: > 100 µM (inactive)

COc1cc2c3nnc(-c4ccc(F)cc4)c-3cn(Cc3ccccc3)c2cc1OC
EC50 [25]: 5.91 µM (active)
EC50 [26]: 5.84 µM (active)
EC50 [27]: > 99 µM (inactive)
EC50 [28]: 2.91 µM (active)
EC50 [29]: > 99 µM (inactive)
IC50 [30]: 19.2 µM (inactive)
IC50 [31]: > 20 µM (inactive)
EC50 [32]: 921 nM (active)
